# Source: patent US10273233B2, “Inhibitors of influenza viruses replication” (Vertex Pharmaceuticals Incorporated, priority 2015, dated 2019)
# Tests used:
# [1] = test system: A/Virginia/ATCC2/2009; test: 3-day CP assay in MDCK cells; type: cell-based; settings: Influenza A virus
# [2] = test system: A/Mexico/4108/2009; test: 3-day CP assay in MDCK cells; type: cell-based; settings: Influenza A virus
# [3] = test system: A/New Jersey/8/76; test: microbe, parasite or virus in culture; type: cell-based; settings: Influenza A virus, MDCK
# [4] = test system: A/NWS/33; test: 3-day CP assay in MDCK cells; type: cell-based, influenza A; settings: Influenza A virus, MDCK
# [5] = test system: A/Denver/1/57; test: 3-day CP assay in MDCK cells; type: cell-based; settings: Influenza A virus
# [6] = test system: A/Texas/48/2009; test: 3-day CP assay in MDCK cells; type: cell-based; settings: Influenza A virus
# [7] = test system: A/Fukushima/141/2006; test: 3-day CP assay in MDCK cells; type: cell-based; settings: Influenza A virus
# [8] = test system: A/Virginia/ATCC3/2009; test: 3-day CP assay in MDCK cells; type: cell-based; settings: Influenza A virus
# [9] = test system: A/Santiago/7981/2006; test: 3-day CP assay in MDCK cells; type: cell-based; settings: Influenza A virus
# [10] = test system: A/Weiss/43; test: 3-day CP assay in MDCK cells; type: cell-based; settings: Influenza A virus
# [11] = test system: A/California/07/2009 NYMC, X-179A; test: 3-day CP assay in MDCK cells; type: cell-based; settings: Influenza A virus
# [12] = test system: A/Hawaii/2/2006; test: 3-day CP assay in MDCK cells; type: cell-based; settings: Influenza A virus
# [13] = test system: A/Swine/1976/31; test: microbe, parasite or virus in culture; type: cell-based; settings: Influenza A virus, MDCK, in Sus scrofa
# [14] = test system: A/Uruguay/716/2007; test: 3-day CP assay in MDCK cells; type: cell-based; settings: Influenza A virus
# [15] = test system: A/Mal/302/54; test: 3-day CP assay in MDCK cells; type: cell-based; settings: Influenza A virus
# [16] = test system: A/FM/1/47; test: 3-day CP assay in MDCK cells; type: cell-based; settings: Influenza A virus
# [17] = test system: A/New York/18/2009; test: 3-day CP assay in MDCK cells; type: cell-based; settings: Influenza A virus
# [18] = test system: A/California/07/2009; test: 3-day CP assay in MDCK cells; type: cell-based; settings: Influenza A virus, MDCK; A/California/07/2009
# [19] = test system: A/Chelyabinsk/1/200; test: 3-day CP assay in MDCK cells; type: cell-based; settings: Influenza A virus
# [20] = test system: A/Henan/Jinshui/147/2007; test: 3-day CP assay in MDCK cells; type: cell-based; settings: Influenza A virus
# [21] = test system: A/Nebraska/1/2006; test: 3-day CP assay in MDCK cells; type: cell-based; settings: Influenza A virus
# [22] = test system: B/Lee/40; test: 3-day CP assay in MDCK cells; type: cell-based; settings: Influenza B virus
# [23] = test system: A/Hong Kong/8/68; test: 3-day CP assay in MDCK cells; type: cell-based; settings: Influenza A virus
# [24] = test system: A/Puerto Rico/8/34; test: 3-day CP assay in MDCK cells; type: cell-based; settings: Influenza A virus
# [25] = test system: A/Georgia/17/2006; test: 3-day CP assay in MDCK cells; type: cell-based; settings: Influenza A virus
# [26] = test system: A/Missouri/3/2006; test: 3-day CP assay in MDCK cells; type: cell-based; settings: Influenza A virus
# [27] = test system: A/Texas/12/2007; test: 3-day CP assay in MDCK cells; type: cell-based; settings: Influenza A virus
# [28] = test system: A/Wisconsin/67/2005; test: 3-day CP assay in MDCK cells; type: cell-based; settings: Influenza A virus
# [29] = test system: B/Memphis/20/1996--070; test: 3-day CP assay in MDCK cells; type: cell-based; settings: Influenza B virus
# [30] = test system: A/Georgia/20/2006; test: 3-day CP assay in MDCK cells; type: cell-based, influenza A; settings: Influenza A virus, MDCK
# [31] = test system: A/Swine/Iowa/15/30; test: microbe, parasite or virus in culture; type: cell-based, influenza A; settings: Influenza A virus, MDCK, in Sus scrofa
# [32] = test system: A/Victoria/3/75; test: 3-day CP assay in MDCK cells; type: cell-based; settings: Influenza A virus
# [33] = test system: A/Cambodia0371/2007; test: 3-day CP assay in MDCK cells; type: cell-based; settings: Influenza A virus
# [34] = test system: A/WS/33; test: 3-day CP assay in MDCK cells; type: cell-based; settings: Influenza A virus
# [35] = test system: A/Port Chalmers/1/73; test: 3-day CP assay in MDCK cells; type: cell-based; settings: Influenza A virus
# [36] = test system: A/Virginia/01/2006; test: 3-day CP assay in MDCK cells; type: cell-based; settings: Influenza A virus
# [37] = test system: B/Russia/69; test: 3-day CP assay in MDCK cells; type: cell-based; settings: Influenza B virus
# [38] = test system: A/Aichi/2/68; test: 3-day CP assay in MDCK cells; type: cell-based; settings: Influenza A virus
# [39] = test system: A/South Dakota/6/2007; test: 3-day CP assay in MDCK cells; type: cell-based; settings: Influenza A virus
# [40] = test system: A/St. Petersburg8/2006; test: 3-day CP assay in MDCK cells; type: cell-based; settings: Influenza A virus
# [41] = test system: A/Equine/Miami/63; test: microbe, parasite or virus in culture; type: cell-based; settings: Influenza A virus, MDCK
smiles,measurement,setting,value
"NC12CC3CC(CC(C3)C1)C2 [Amantadine, amantadine]",EC50,[1],> 10 µM
same,EC50,[2],> 10 µM
same,EC50,[3],0.82 µM
same,EC50,[4],> 10 µM
same,EC50,[5],0.31 µM
same,EC50,[6],> 10 µM
same,EC50,[7],0.46 µM
same,EC50,[8],> 10 µM
same,EC50,[9],> 10 µM
same,EC50,[10],> 10 µM
same,EC50,[11],> 10 µM
same,EC50,[12],9.2 µM
same,EC50,[13],0.078 µM
same,EC50,[14],> 10 µM
same,EC50,[15],2.1 µM
same,EC50,[16],0.66 µM
same,EC50,[17],> 10 µM
same,EC50,[18],> 10 µM
same,EC50,[19],> 10 µM
same,EC50,[20],> 10 µM
same,EC50,[21],> 10 µM
same,EC50,[22],> 10 µM
same,EC50,[23],3.7 µM
same,EC50,[24],> 10 µM
same,EC50,[25],0.25 µM
same,EC50,[26],6 µM
same,EC50,[27],> 10 µM
same,EC50,[28],> 10 µM
same,EC50,[29],> 10 µM
same,EC50,[30],> 10 µM
same,EC50,[31],0.22 µM
same,EC50,[32],8.6 µM
same,EC50,[33],> 10 µM
same,EC50,[34],> 10 µM
same,EC50,[35],> 10 µM
same,EC50,[36],> 10 µM
same,EC50,[37],> 10 µM
same,EC50,[38],6.6 µM
same,EC50,[39],0.14 µM
same,EC50,[40],> 10 µM
same,EC50,[41],1.75 µM
